# Laboratory results: publication PMC5650142, “GPR40 partial agonists and AgoPAMs: Differentiating effects on glucose and hormonal secretions in the rodent” (PLoS ONE, 2017)
# Where “and” joins values, the source holds several entries; their conditions need not be identical. Equal entries are not always repeated. Where two headings read alike, the source gives them in different places.
# Columns and labels:
# mouse GPR40 = target: T1, mouse GPR40 (Mus musculus, UniProt Q76JU9); assay: Mouse GPR40 IP1 accumulation assay; format: cell-based
# T1 construct: expressed in transfected cells; host or cells: CHO-K1 (methods)
# T1 sequence (Q76JU9 whole entry): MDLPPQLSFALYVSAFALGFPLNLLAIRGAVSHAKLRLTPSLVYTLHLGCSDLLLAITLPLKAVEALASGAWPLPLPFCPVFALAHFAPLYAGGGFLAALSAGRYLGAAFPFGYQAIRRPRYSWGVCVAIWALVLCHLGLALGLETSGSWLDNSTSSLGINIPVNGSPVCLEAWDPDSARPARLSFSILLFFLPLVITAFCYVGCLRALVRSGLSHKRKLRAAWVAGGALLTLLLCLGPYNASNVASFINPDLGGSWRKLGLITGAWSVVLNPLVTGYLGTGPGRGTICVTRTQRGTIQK
# Description: (§1) Stable cell lines expressing human GPR40 (hGPR40/HEK293), mouse GPR40 (mGPR40/CHO-K1), and rat GPR40 (rGPR40/CHO-K1) were cultured in DMEM media supplemented with 10% FBS, glutamine, non-essential amino acids, and penicillin/streptomycin. hGPR40/HEK293 & mGPR40/CHO-K1 cell media was supplemented with […] G418 (Life Technologies), while rGPR40/CHO-K1 cells were grown in […] blasticidin plus […] hygromycin (Life Technologies). Cell stocks were maintained and grown in a sub-confluent state using standard cell culture procedures. The day before the experiment, the cells were harvested with non-enzymatic cell dissociation buffer and re-suspended in DMEM supplemented with 10% FBS, glutamine, non-essential amino acids, penicillin/streptomycin at 0.15, 0.2 and 0.3 million cells per ml for human, mouse, and rat GPR40, respectively. […] The seeded plates were incubated overnight at 37 C.
# (§2) On the day of the experiment, the growth media was removed from the assay by gently patting the assay plates on an absorbent sheet and 10 μl of IP1 stimulation buffer (Cis Bio IP-one Tb HTRF kit) supplemented with 50 mM LiCl is added to each well. Test compounds dissolved in DMSO were serially diluted in ½ log increments starting from 2 mM or 0.2 mM and 50 nl of the compound dilution was acoustically added to each well (final starting concentration 10 μM or 1 μM). Plates were then incubated for 60 minutes at room temperature and 10 μl of detection buffer (prepared as described in the Tb kit) is added to each well. The plates are then incubated one additional hour at room temperature. […] For each assay, a standard curve plate in which IP1 is titrated is also included. […] The percent activity at each concentration of test compound is determined using 0% activation (basal activity) determined in those wells that contain DMSO alone, while 100% activity is determined in wells that contained a concentration of a partial allosteric agonist know to activate GPR40. The % activity is then plotted versus the concentration of test compound and the dose response curve fitted to a standard 4-parameter non-linear regression model using a custom in-house developed software package (Merck & Co., Inc., MRL, Kenilworth, NJ, USA). Maximal % activity and EC50 are then determined for each test compound.
# rat GPR40 = target: T2, rat GPR40 (Rattus norvegicus, UniProt Q8K3T4); assay: Rat GPR40 IP1 accumulation assay; format: cell-based
# T2 construct: expressed in transfected cells; host or cells: CHO-K1 (methods)
# T2 sequence (Q8K3T4 whole entry): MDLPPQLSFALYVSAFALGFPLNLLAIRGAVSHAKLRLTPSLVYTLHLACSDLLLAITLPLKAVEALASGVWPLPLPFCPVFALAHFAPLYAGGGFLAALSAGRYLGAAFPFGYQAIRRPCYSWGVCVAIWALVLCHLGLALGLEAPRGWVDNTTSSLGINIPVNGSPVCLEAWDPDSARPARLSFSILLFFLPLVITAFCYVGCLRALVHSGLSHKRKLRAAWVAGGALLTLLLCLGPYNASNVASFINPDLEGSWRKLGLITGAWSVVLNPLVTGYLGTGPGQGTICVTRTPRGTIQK
# Description: as §1, §2
# human GPR40 [1] = target: T3, human GPR40 (Homo sapiens, UniProt O14842); assay: GPR40 binding assay, partial agonist tracer [3H]L358; design: expressed in transfected cells; host or cells: CHO / CHO-K1 cells, membrane preparation; conditions: radioligand L-001533358;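 on %Bound: 100% is tracer binding with DMSO alone and 0% is full displacement by a standard compound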
# T3 sequence (O14842 whole entry): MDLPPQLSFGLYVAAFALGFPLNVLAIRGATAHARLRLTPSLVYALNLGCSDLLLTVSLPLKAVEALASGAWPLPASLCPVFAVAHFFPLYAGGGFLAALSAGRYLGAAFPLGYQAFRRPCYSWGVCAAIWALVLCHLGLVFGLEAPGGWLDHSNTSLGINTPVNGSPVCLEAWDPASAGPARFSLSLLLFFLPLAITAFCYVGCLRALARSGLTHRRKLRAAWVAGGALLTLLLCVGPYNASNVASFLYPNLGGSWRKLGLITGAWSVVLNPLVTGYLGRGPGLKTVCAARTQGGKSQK
# Description: Two small molecule tracers, the partial agonist [3H][…] and the AgoPAM [3H]25, are used to measure compound affinity at each site as described previously. Because of the allosteric coupling of the two sites and the nature of the assay, addition of a compound will either displace (binds to same site) or augment (binds to allosterically coupled site) radiotracer. Membranes expressing GPR40 were prepared from CHO cells stably expressing human GPR40. […] Sigma P8830) and were homogenized in 50 ml aliquots with a motor-driven glass Dounce homogenizer, 15 strokes at 1900 rpm on wet ice, repeating once. Homogenates were centrifuged at 2200 rpm for 10 min at 4°C. Supernatants were carefully removed and pooled. Homogenization and centrifugation were repeated until the debris pellet was translucent to maximize membrane recovery. Supernatants were then centrifuged at […] rpm for 20 min. at 4°C. […] Protein concentration was determined by Pierce BCA kit. […] The beads and membrane mixture is then vigorously mixed for 30 minutes at room temperature prior to addition to the assay. […] Next, 15 μl of the radioligand and 35 μl of the beads/membranes solution is added to each well. The assay plates are then sealed and incubated for 30 minutes at room temperature on an orbital shaker. The plates are allowed to settle for 16 hours and then counted on a TopCount scintillation counter (PE). […] Maximal % bound and IC50 are then determined for each test compound. 5 μg/well membrane together with 200 μg/well of PVT WGA SPA beads (GE #RPNG-0001) were suspended in a white 96 well plate with a final concentration of 50 μl/well in assay buffer (50 mM Tris, 10 mM MgCl2, and 2 mM EDTA). […] The plate is briefly mixed and incubated for 3-18 h at room temperature, before it is read on a MicroBeta plate counter (Perkin Elmer, MS, USA).
# human GPR40 [2] = target: T3, human GPR40; assay: Human GPR40 IP1 accumulation assay; format: cell-based; design: expressed in transfected cells
# Description: as §1, §2
# [3] = maximal % activity vs in-house partial agonist control
structure (smiles),measurement,setting,value
COc1ccc(F)c(-c2ccc([C@@H]3CCc4ccc([C@H](C5CC5)[C@H](C)C(=O)O)cc4O3)cc2)c1 [AP1],Mouse GPR40 Receptor Activation (%),mouse GPR40; dose 1.50E-11 M,13%
same,Mouse GPR40 Receptor Activation (%),mouse GPR40; dose 1.55E-08 M,531%
same,Mouse GPR40 Receptor Activation (%),mouse GPR40; dose 2.43E-10 M,207%
same,Mouse GPR40 Receptor Activation (%),mouse GPR40; dose 2.49E-07 M,540%
same,Mouse GPR40 Receptor Activation (%),mouse GPR40; dose 3.89E-09 M,508%
same,Mouse GPR40 Receptor Activation (%),mouse GPR40; dose 4.00E-12 M,-3.79%
same,Mouse GPR40 Receptor Activation (%),mouse GPR40; dose 6.10E-11 M,72%
same,Mouse GPR40 Receptor Activation (%),mouse GPR40; dose 6.22E-08 M,489%
same,Mouse GPR40 Receptor Activation (%),mouse GPR40; dose 9.72E-10 M,327%
same,"%Act, Mouse GPR40, Functional Assay",mouse GPR40; individual determinations,325% and 647% and 612% and 390% and 593% and 587% and 801% and 441% and 392% and 533%
same,EC50,"mouse GPR40; individual determinations, read-out: EC50 (nM), Mouse GPR40, Functional Assay",0.44 nM and 0.48 nM and 0.55 nM and 0.56 nM and 0.66 nM and 0.74 nM and 0.33 nM and 0.41 nM and 0.43 nM
same,"Efficacy (% Activation), Mouse",mouse GPR40; [3],(532%)
same,EC50,"mouse GPR40; mean ± SD, n = 2–20, IP accumulation, read-out: Potency [EC50, nM] ± SD, Mouse",0.51 ± 0.12 nM
same,Rat GPR40 Receptor Activation (%),rat GPR40; dose 1.50E-11 M,7%
same,Rat GPR40 Receptor Activation (%),rat GPR40; dose 1.55E-08 M,588%
same,Rat GPR40 Receptor Activation (%),rat GPR40; dose 2.43E-10 M,161%
same,Rat GPR40 Receptor Activation (%),rat GPR40; dose 2.49E-07 M,616%
same,Rat GPR40 Receptor Activation (%),rat GPR40; dose 3.89E-09 M,549%
same,Rat GPR40 Receptor Activation (%),rat GPR40; dose 4.00E-12 M,0.25%
same,Rat GPR40 Receptor Activation (%),rat GPR40; dose 6.10E-11 M,52%
same,Rat GPR40 Receptor Activation (%),rat GPR40; dose 6.22E-08 M,567%
same,Rat GPR40 Receptor Activation (%),rat GPR40; dose 9.72E-10 M,357%
same,Rat GPR40 Receptor Activation (%),rat GPR40; dose 9.95E-07 M,567%
same,"%Act, Rat GPR40, Functional Assay",rat GPR40; individual determinations,391% and 456% and 671% and 592% and 636% and 716% and 674% and 356% and 385% and 437%
same,EC50,"rat GPR40; individual determinations, read-out: EC50 (nM), Rat GPR40, Functional Assay",0.45 nM and 0.46 nM and 0.58 nM and 0.61 nM and 0.72 nM and 0.95 nM and 1.15 nM and 0.31 nM and 0.33 nM and 0.36 nM
same,"Efficacy (% Activation), Rat",rat GPR40; [3],(531%)
same,EC50,"rat GPR40; mean ± SD, n = 2–20, IP accumulation, read-out: Potency [EC50, nM] ± SD, Rat",0.59 ± 0.28 nM
same,% Bound Normalized to 100,human GPR40 [1]; dose 0.318285 nM,100.72%
same,%Bound,human GPR40 [1]; dose 0.318285 nM,106.70%
same,% Bound Normalized to 100,human GPR40 [1]; dose 1.00578 nM,118.24%
same,%Bound,human GPR40 [1]; dose 1.00578 nM,124.21%
same,% Bound Normalized to 100,human GPR40 [1]; dose 3.17827 nM,131.70%
same,%Bound,human GPR40 [1]; dose 3.17827 nM,137.67%
same,% Bound Normalized to 100,human GPR40 [1]; dose 10.0433 nM,152.63%
same,%Bound,human GPR40 [1]; dose 10.0433 nM,158.61%
same,% Bound Normalized to 100,human GPR40 [1]; dose 31.7369 nM,164.17%
same,%Bound,human GPR40 [1]; dose 31.7369 nM,170.14%
same,% Bound Normalized to 100,human GPR40 [1]; dose 100.289 nM,171.43%
same,%Bound,human GPR40 [1]; dose 100.289 nM,177.41%
same,% Bound Normalized to 100,human GPR40 [1]; dose 316.912 nM,183.61%
same,%Bound,human GPR40 [1]; dose 316.912 nM,189.59%
same,% Bound Normalized to 100,human GPR40 [1]; dose 1001.44 nM,174.85%
same,%Bound,human GPR40 [1]; dose 1001.44 nM,180.83%
same,% Bound Normalized to 100,human GPR40 [1]; dose 3164.56 nM,169.51%
same,%Bound,human GPR40 [1]; dose 3164.56 nM,175.49%
same,% Bound Normalized to 100,human GPR40 [1]; dose 10000 nM,192.80%
same,%Bound,human GPR40 [1]; dose 10000 nM,198.77%
same,Human GPR40 Receptor Activation (%),human GPR40 [2]; dose 1.50E-11 M,35%
same,Human GPR40 Receptor Activation (%),human GPR40 [2]; dose 1.55E-08 M,357%
same,Human GPR40 Receptor Activation (%),human GPR40 [2]; dose 2.43E-10 M,231%
same,Human GPR40 Receptor Activation (%),human GPR40 [2]; dose 2.49E-07 M,381%
same,Human GPR40 Receptor Activation (%),human GPR40 [2]; dose 3.89E-09 M,357%
same,Human GPR40 Receptor Activation (%),human GPR40 [2]; dose 4.00E-12 M,5%
same,Human GPR40 Receptor Activation (%),human GPR40 [2]; dose 6.10E-11 M,154%
same,Human GPR40 Receptor Activation (%),human GPR40 [2]; dose 6.22E-08 M,356%
same,Human GPR40 Receptor Activation (%),human GPR40 [2]; dose 9.72E-10 M,323%
same,Human GPR40 Receptor Activation (%),human GPR40 [2]; dose 9.95E-07 M,404%
same,"%Act, HUMAN GPR40, Functional Assay",human GPR40 [2]; individual determinations,254% and 368% and 338% and 409% and 464% and 275% and 405% and 364% and 355%
same,EC50,"human GPR40 [2]; individual determinations, read-out: EC50 (nM), HUMAN GPR40, Functional Assay",0.13 nM and 0.14 nM and 0.18 nM and 0.19 nM and 0.22 nM and 0.08 nM and 0.09 nM and 0.12 nM
same,"Efficacy (% Activation), Human",human GPR40 [2]; [3],(359%)
same,EC50,"human GPR40 [2]; mean ± SD, n = 2–20, IP accumulation, read-out: Potency [EC50, nM] ± SD, Human",0.15 ± 0.05 nM
